{"source": "patent US10106627B2", "about": "“Process for the preparation of polymeric biosurfactants” (priority 2014, dated 2018)", "key": {"[1]": {"system": "IL-6 in RAW 264.7 cells", "assay": "LPS-induced IL-6 ELISA in RAW 264.7 cells", "type": "cell-based, mouse", "conditions": "50 μg ml^−1; LPS 100 ng ml^−1 24 h; LPS alone 190.9", "method": "The effect of Brevisan, Microsan and M-EPS-Au-NP on the release of proinflammatory cytokines, TNF-α and IL-6, was measured using ELISA kits (Biosource International, Camarillo, Calif., USA). In independent experiments, the RAW-264.7 cells were treated with different concentrations (1, 10, 50 and 100 μg ml^−1) of Brevisan, Microsan and M-EPS-Au-NP and then stimulated with 100 ng ml^−1 of LPS. The supernatants were harvested after 24 h and the concentrations of TNF-α and IL-6 was measured using an ELISA kit according to the manufacturer's instructions."}, "[2]": {"system": "nitric oxide (NO) in RAW 264.7 macrophages", "assay": "LPS-stimulated nitric oxide (Griess reaction) in RAW 264.7 macrophages", "type": "cell-based, mouse", "conditions": "20 μg ml^−1; LPS 100 ng ml^−1 24 h; LPS alone 66.87%", "procedure": "After 24 h, 100 μl of culture supernatant was collected and mixed with 100 μl of Griess reagent in a 96-well plate and incubated for 15 min at room temperature. The optical density was spectroscopically measured at 540 nm using TRIAD multimode reader (Dynex Technologies, Inc., Chantilly, Va.). The experiments were run in triplicates and reported as the percentage of NO produced."}, "[3]": {"assay": "Thermal degradation analysis (TGA/DSC)", "type": "physicochemical", "method": "The Microsan and Brevisan polymeric biosurfactants recovered and purified in Example 3 were subjected to structural characterization. The average molecular weight (Mw) of EPS was determined by gel permeation chromatography [Agilent 1100 Series HPLC system, TOSOH Corporation, Japan, equipped with a RID and a TSK G5000PWXL gel column (7.8×300 mm) and a TSK PWXL (6.0 mm×40 mm) guard column] using dextran standards ranging from 10680 to 578500 Da (Sigma, CAS No. 9004-54-0). The Fourier transform infrared spectra (FT-IR) were recorded on the Thermo-Nicolet Nexus 670 FT-IR spectrophotometer (Thermo Fisher Scientific Inc., Madison, Wis., U.S.A.) using KBr pellets containing 1% finely ground EPS samples and the spectra was collected at a resolution of 4 cm^−1 in the wavenumber region of 400-4,000 […]. The cross-polarization/magic angle spinning (CP/MAS) ^13C NMR experiments were performed on a Varian Unity Innova spectrometer operating at 400 MHz for ^1H and 100 MHz for ^13C at room temperature. […] Thermal degradation analyses of the EPS samples were measured using a DSC 821^c (Mettler Toledo GmbH, Switzerland) interfaced with Mettler Toledo Star SW (version 8.10) software. […] All of the XPS analyses were carried out in duplicates (two independent samples of each type of EPS analyzed at different time intervals). […]"}}}
{"substance": "β-D-glucuronyl-(1-2)-D-mannosyl-(1-4)-D-glucose [Microsan]", "values": [{"measurement": "IL-6 production after treatment", "setting": "[1]", "value": 90.01, "unit": "µg/mL"}, {"measurement": "LPS-stimulated NO levels after treatment", "setting": "[2]", "value": 20.05, "unit": "%"}, {"measurement": "thermal degradation temperature (TGA)", "setting": "[3]", "value": 280, "unit": "°C"}]}
